Source: the supplement of paper PMC10307832

Key:
Experiment in all cases: relative viability (nuclei count vs DMSO), 5 days (fraction); higher = more cells survive
Carboplatin + Pemetrexed = compound: C1CC(C1)(C(=O)O)C(=O)O.[NH2-].[NH2-].[Pt+2] [Carboplatin] + Nc1nc2[nH]cc(CCc3ccc(C(=O)N[C@@H](CCC(=O)O)C(=O)O)cc3)c2c(=O)[nH]1 [Pemetrexed] (partner 0.2 µM)
Summary of the method: (§1)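 Lung cancer cell lines were seeded in 1536-well plates and dosed by pin tool the next day, with either a single drug or a fixed anchor-drug dose combined with five library-drug doses (not always all listed) spaced in √10 steps. Five days later, one step fixed the cells and stained their nuclei (final 0.05% Triton X-100, 1% formaldehyde, 1 ug/ml Hoechst), and nuclei were counted on 4× images. Relative viability is the nuclei count in treated wells divided by the count in vehicle wells, and each value is the median of duplicate plates.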

MLN4924 + Alpelisib = compound: NS(=O)(=O)OC[C@@H]1C[C@@H](n2ccc3c(N[C@H]4CCc5ccccc54)ncnc32)C[C@@H]1O [MLN4924] + Cc1nc(NC(=O)N2CCC[C@H]2C(N)=O)sc1-c1ccnc(C(C)(C)C(F)(F)F)c1 [Alpelisib] (partner 2 µM)
Summary of the method: as §1

GSK126 + Foretinib = compound: CC[C@H](C)N1C=C(C2=C(C=C(C=C21)C3=CN=C(C=C3)N4CCNCC4)C(=O)NCC5=C(C=C(NC5=O)C)C)C [GSK126] + COc1cc2c(Oc3ccc(NC(=O)C4(C(=O)Nc5ccc(F)cc5)CC4)cc3F)ccnc2cc1OCCCN1CCOCC1 [Foretinib] (partner 0.25 µM)
Summary of the method: as §1

GSK126 + Pictilisib = compound: CC[C@H](C)N1C=C(C2=C(C=C(C=C21)C3=CN=C(C=C3)N4CCNCC4)C(=O)NCC5=C(C=C(NC5=O)C)C)C [GSK126] + CS(=O)(=O)N1CCN(Cc2cc3nc(-c4cccc5[nH]ncc45)nc(N4CCOCC4)c3s2)CC1 [Pictilisib] (partner 1 µM)
Summary of the method: as §1

| Cell Line | relative viability (Carboplatin + Pemetrexed; first compound 0.08 µM) | relative viability (Carboplatin + Pemetrexed; first compound 0.253 µM) | relative viability (Carboplatin + Pemetrexed; first compound 0.8 µM) | relative viability (Carboplatin + Pemetrexed; first compound 2.53 µM) | relative viability (Carboplatin + Pemetrexed; first compound 8 µM) | relative viability (MLN4924 + Alpelisib; first compound 0.04 µM) | relative viability (MLN4924 + Alpelisib; first compound 0.1265 µM) | relative viability (MLN4924 + Alpelisib; first compound 0.4 µM) | relative viability (MLN4924 + Alpelisib; first compound 1.265 µM) | relative viability (MLN4924 + Alpelisib; first compound 4 µM) | relative viability (GSK126 + Foretinib; first compound 0.08 µM) | relative viability (GSK126 + Foretinib; first compound 0.253 µM) | relative viability (GSK126 + Foretinib; first compound 0.8 µM) | relative viability (GSK126 + Foretinib; first compound 2.53 µM) | relative viability (GSK126 + Foretinib; first compound 8 µM) | relative viability (GSK126 + Pictilisib; first compound 0.08 µM) | relative viability (GSK126 + Pictilisib; first compound 0.253 µM) | relative viability (GSK126 + Pictilisib; first compound 0.8 µM) | relative viability (GSK126 + Pictilisib; first compound 2.53 µM) | relative viability (GSK126 + Pictilisib; first compound 8 µM) |
| --- | --- | --- | --- | --- | --- | --- | --- | --- | --- | --- | --- | --- | --- | --- | --- | --- | --- | --- | --- | --- |
| HARA | 0.232 | 0.201 | 0.241 | 0.247 | 0.246 | 0.716 | 0.576 | 0.249 | 0.0868 | 0.0836 | 1.14 | 0.93 | 0.874 | 0.877 | 0.839 | 0.394 | 0.421 | 0.48 | 0.411 | 0.37 |
| HCC-15 | 0.228 | 0.228 | 0.216 | 0.232 | 0.22 | 0.537 | 0.23 | 0.163 | 0.0818 | 0.0862 | 1.08 | 1.04 | 1.08 | 1.04 | 0.887 | 0.767 | 0.709 | 0.698 | 0.673 | 0.676 |
| HCC-44 | 0.637 | 0.684 | 0.569 | 0.535 | 0.606 | 0.7 | 0.347 | 0.162 | 0.15 | 0.134 |  |  |  |  |  | 0.643 | 0.534 | 0.894 | 0.61 | 0.591 |
| HCC-78 | 0.898 | 0.905 | 0.893 | 0.883 | 0.854 | 0.429 | 0.253 | 0.536 | 0.149 | 0.139 | 0.561 | 0.556 | 0.521 | 0.63 | 0.548 | 0.25 | 0.201 | 0.178 | 0.217 | 0.237 |
| HCC-366 | 0.156 | 0.153 | 0.164 | 0.18 | 0.145 | 0.58 | 0.733 | 0.877 | 0.369 | 0.027 | 1.02 | 0.974 | 0.907 | 0.892 | 0.935 | 0.132 | 0.138 | 0.13 | 0.0968 | 0.126 |
| HCC-827 | 0.253 | 0.244 | 0.259 | 0.234 | 0.245 | 0.893 | 0.47 | 0.595 | 0.234 | 0.159 | 1.02 | 1.02 | 1.01 | 1.03 | 1.09 | 1.19 | 1.25 | 1.01 | 0.953 | 1.12 |
| HOP-62 | 0.416 | 0.328 | 0.332 | 0.328 | 0.308 | 0.903 | 0.627 | 0.29 | 0.0619 | 0.0676 | 1.11 | 1.08 | 1.01 | 1.21 | 1.04 | 0.894 | 0.758 | 0.64 | 0.86 | 0.785 |
| IA-LM |  |  |  |  |  | 0.494 | 0.2 | 0.153 | 0.0773 | 0.0621 | 1.26 | 1.03 | 0.994 | 1.03 | 1.08 | 0.359 | 0.286 | 0.301 | 0.443 | 0.36 |
| NCI-H522 | 0.814 | 0.924 | 1.11 | 1.01 | 0.913 |  |  |  |  |  |  |  |  |  |  |  |  |  |  |  |
| NCI-H727 |  |  |  |  |  | 0.474 | 0.292 | 0.245 | 0.194 | 0.213 | 1.09 | 0.981 | 0.888 | 1.01 | 0.744 | 0.269 | 0.367 | 0.317 | 0.367 | 0.43 |
| NCI-H1299 |  |  |  |  |  | 1.03 | 1.07 | 0.71 | 0.333 | 0.263 | 1.14 | 1.13 | 1.05 | 1.07 | 1.11 | 0.877 | 0.693 | 0.74 | 1.02 | 0.576 |
| NCI-H1623 |  |  |  |  |  |  |  |  |  |  | 0.941 | 0.888 | 0.916 | 0.883 | 0.799 |  |  |  |  |  |
| NCI-H1648 | 0.747 | 0.737 | 0.733 | 0.587 | 0.65 |  |  |  |  |  |  |  |  |  |  |  |  |  |  |  |
| NCI-H1650 | 0.459 | 0.46 | 0.302 | 0.32 | 0.318 |  |  |  |  |  | 1.45 | 1 | 0.934 | 1.12 | 1.09 | 0.568 | 0.596 | 0.566 | 0.794 | 0.556 |
| NCI-H1703 |  |  |  |  |  | 0.22 | 0.177 | 0.189 | 0.135 | 0.121 | 0.354 | 0.357 | 0.311 | 0.373 | 0.381 | 0.247 | 0.263 | 0.235 | 0.262 | 0.231 |
| NCI-H1792 | 1.21 | 0.75 | 0.755 | 0.811 | 0.608 | 0.685 | 0.758 | 0.944 | 0.441 | 0.21 |  |  |  |  |  | 0.289 | 0.272 | 0.35 | 0.3 | 0.246 |
| NCI-H2342 | 0.786 | 0.844 | 0.791 | 0.834 | 0.762 |  |  |  |  |  | 1.16 | 1.05 | 0.998 | 1.05 | 1.16 |  |  |  |  |  |
| SW 900 | 0.495 | 0.468 | 0.488 | 0.525 | 0.496 |  |  |  |  |  | 0.753 | 0.817 | 0.922 | 0.848 | 0.909 |  |  |  |  |  |
